Experimental data: US10597352B1, “Stable alkyl benzidine composition and methods of making and using same” (OneStep Technologies Inc., priority 2019, dated 2020)

Assay: Stability evaluation of alkyl benzidine solutions on storage at a stated temperature (method not described)
Format: physicochemical
Method: In one example, a solution of TMB prepared in polyethylene glycol in accordance with Example 1.0 was evaluated for stability. It was determined that the solution was stable at room temperature (i.e. 22° C.) for a period of at least two years. It was further determined that the solution was stable at 37° C. for a period of at least two months.

stability of compositions produced with the tetraalkyl benzidine compound (in words): stable compositions
SMILES: Cc1cc(-c2cc(C)c(NCCCS(=O)(=O)O)c(C)c2)cc(C)c1N [N-(3-sulfopropyl)-3,3′,5,5′-tetramethylbenzidine]
